Here are results for 20 compounds from patent publication US9561231B2 (AbbVie Inc., priority 2012, dated 2017).

Test [1] has as its system LPS induced IL-6 production. Nature of the test: LPS (lipopolysaccharide) induced IL-6 production mouse assay. The note with it: 1 h before LPS 2.5 mg/kg i.p., serum IL-6 2 h after LPS, p<0.05.
Method: Severe combined immunodeficient female mice (5 per group) received an intraperitoneal challenge of lipopolysaccharide (2.5 mg/kg, L2630 E. coli 0111:B4) one hour after oral administration of compounds. Mice were euthanized 2 hours after lipopolysaccharide injection, blood was removed by cardiac puncture, and then the serum harvested from the blood samples was frozen at −80° C. On the day of the assay the serum samples were brought to room temperature and then diluted 1:20 in phosphate-buffered saline containing 2% bovine serum albumin. Interleukin-6 measurements were performed using a cytokine assay from Meso Scale Discovery (Gaithersburg, Md.) for mouse serum analysis according to the manufacturer's protocol and read on a SECTOR Imager 6000 (Meso Scale Discovery, Gaithersburg, Md.) instrument. Statistical analysis was performed using Prism software (version 5.0) incorporating Dunnett's one way ANOVA. The IL-6 mean and standard deviation of the group of vehicle treated animals were compared with the IL-6 mean and standard deviation of the group treated with drug. A p value <0.05 means that there is less than a 5% probability that the mean values in the two groups are equal.
Test [2] relates to breast cancer cell line MX-1. Nature of the test: MX-1 cell line proliferation assay (3-day). Conditions: Homo sapiens, MX1, MX-1 cells, Cell Titer Glo, read-out: Cellular proliferation: EC50. Format: cell-based. In outline:
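EC50 derived by sigmoidal fitting of Cell Titer Glo signal relative to DMSO controls. Compound, 3 μM down to 0.0001 μM final in 3-fold steps, was added to adhered MX-1 cells (5000/well, RPMI + 10% FBS) for a 3-day incubation at 37° C.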

Test [3] concerns the target T1, first (BD1: amino acids K57-E168) bromodomain of BRD4 (Homo sapiens, UniProt O60885).
T1 construct: His-tagged first (BD1: amino acids K57-E168)
Nature of the test: TR-FRET bromodomain binding assay, BRD4 BD1. The note with it: Ki calculated from IC50, probe Kd and probe concentration, read-out: TR-FRET Binding Ki: BRD4 (BDI_K57-E168). The essentials: (§1)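 TR-FRET probe competition, His-tagged bromodomain, Alexa647-labeled BET-inhibitor tracer. Ki from IC50 via probe Kd.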

For test [4], the target named is T2, second (BD2: amino acids E352-E168) bromodomain of BRD4 (Homo sapiens, UniProt O60885).
T2 construct: protocol
The experiment in a line: TR-FRET bromodomain binding assay, BRD4 BD2. Conditions: Ki calculated from IC50, probe Kd and probe concentration, read-out: TR-FRET Binding Ki: BRD4 (BDII_E352-M457). The essentials: as §1

The mark [5] stands for this setting: TR-FRET assay protocol (A-G, compound concentration range).
Setting [6] is: TR-FRET assay protocol (D, E or G) per compound.

Like-named read-outs stand apart in the source and are kept apart here.

Regarding `Cc1cc(Oc2ccccc2)c(-c2ccc(=O)n(C)c2)cc1NS(C)(=O)=O` [Example 257, N-[2-methyl-5-(1-methyl-6-oxo-1,6-dihydropyridin-3-yl)-4-phenoxyphenyl]methanesulfonamide], the “Inhibition of LPS induced IL-6 production, % inhibition” value (“Inhibition … % inhibition” for short) in test [1] (30 mg/kg oral) was 49.7 @ 30 mg/kg %. For the same compound, the EC50 in test [2] (72 h incubation) turned out to be 173 nM. Also, the Ki (in general, the equilibrium dissociation constant of an inhibitor or competing ligand from its target) in test [3] (setting [5]) was 18.1 nM; in test [4] (setting [5]), 31.6 nM.
Take `CCS(=O)(=O)Nc1ccc(Oc2ccc(F)cc2F)c(-c2cn(C)c(=O)cc2OCC2(C)CC2(F)F)c1` (stereo not drawn) [Example 335, N-[3-{4-[(2,2-difluoro-1-methylcyclopropyl)methoxy]-1-methyl-6-oxo-1,6-dihydropyridin-3-yl}-4-(2,4-difluorophenoxy)phenyl]ethanesulfonamide]: the “Inhibition … % inhibition” value in test [1] (3 mg/kg oral) is listed as 50.9 @ 3 mg/kg %. The EC50 in test [2] (72 h incubation) was 239 nM. Also, the Ki was 95.3 nM in test [3] (setting [5]) and 15.1 nM in test [4] (setting [5]).
Turning to `CCOc1cc(=O)n(C)cc1-c1cc(NS(=O)(=O)CC)ccc1Oc1ccc(Cl)cc1` [Example 400, N-[4-(4-chlorophenoxy)-3-(4-ethoxy-1-methyl-6-oxo-1,6-dihydropyridin-3-yl)phenyl]ethanesulfonamide], in test [1] (3 mg/kg oral), the “Inhibition … % inhibition” value was 66.4 @ 3 mg/kg %. In addition, in test [2] (72 hours with compound), the EC50 was found to be 18.1 nM. The Ki in test [3] (setting [6]) is 7.21 nM; in test [4] (setting [6]), 1.81 nM.
`CCOc1cc(=O)n(C)cc1-c1cc(S(=O)(=O)CC)ccc1OCC1CC1(F)F` (stereo not drawn) [Example 368, 5-{2-[(2,2-difluorocyclopropyl)methoxy]-5-(ethylsulfonyl)phenyl}-4-ethoxy-1-methylpyridin-2(1H)-one]: the “Inhibition … % inhibition” value in test [1] (3 mg/kg oral) is listed as 72.4 @ 3 mg/kg %. For the same compound, the EC50 in test [2] (72 h incubation) stood at 96.2 nM. Besides, the Ki was 19.6 nM in test [3] (setting [5]) and 28.6 nM in test [4] (setting [5]).
Regarding `Cn1cc(-c2cc(NS(C)(=O)=O)ccc2Oc2ccc(Cl)cc2)ccc1=O` [Example 233, N-[4-(4-chlorophenoxy)-3-(1-methyl-6-oxo-1,6-dihydropyridin-3-yl)phenyl]methanesulfonamide], the “Inhibition … % inhibition” value in test [1] (30 mg/kg oral) is given as 75.9 @ 30 mg/kg %. For the same compound, the EC50 in test [2] (72 h incubation) amounted to 423 nM. In addition, the results for the Ki in test [3] (setting [5]) and in test [4] (setting [5]) were 19.2 nM and 110 nM, respectively.
`CCCOc1cc(=O)n(C)cc1-c1cc(NS(=O)(=O)CC)ccc1Oc1ccc(F)cc1F` [Example 292, N-[4-(2,4-difluorophenoxy)-3-(1-methyl-6-oxo-4-propoxy-1,6-dihydropyridin-3-yl)phenyl]ethanesulfonamide]: the “Inhibition … % inhibition” value in test [1] (3 mg/kg oral) is listed as 58.0 @ 3 mg/kg %. Besides, in test [2] (72 h incubation), the EC50 was determined as 45 nM. In addition, the Ki in test [3] (setting [5]) is 4.97 nM; in test [4] (setting [5]) it was 1.73 nM.
`[2H]C([2H])(C)Oc1cc(=O)n(C)cc1-c1cc(NS(=O)(=O)CC)ccc1Oc1ccc(F)cc1F` [Example 333, N-[4-(2,4-difluorophenoxy)-3-{4-[(1,1-^2H2)ethyloxy]-1-methyl-6-oxo-1,6-dihydropyridin-3-yl}phenyl]ethanesulfonamide]: the “Inhibition … % inhibition” value in test [1] (3 mg/kg oral) is given as 63.6 @ 3 mg/kg %.
For the compound `CCOc1cc(=O)n(C)cc1-c1cc(S(=O)(=O)CC)ccc1Oc1ccc(F)cc1F` [Example 375, 5-[2-(2,4-difluorophenoxy)-5-(ethylsulfonyl)phenyl]-4-ethoxy-1-methylpyridin-2(1H)-one], in test [1] (3 mg/kg oral), the “Inhibition … % inhibition” value is 84.4 @ 3 mg/kg %. Moreover, the EC50 in test [2] (72 hours with compound) worked out at 40.2 nM. Also, the inhibition constant Ki in test [3] (setting [6]) was 12.9 nM; in test [4] (setting [6]), 3.22 nM.
For `CCS(=O)(=O)Nc1ccc(Oc2ccc(F)cc2F)c(-c2cn(C)c(=O)cc2OC2CCC2)c1` [Example 367, N-{3-[4-(cyclobutyloxy)-1-methyl-6-oxo-1,6-dihydropyridin-3-yl]-4-(2,4-difluorophenoxy)phenyl}ethanesulfonamide], in test [1] (3 mg/kg oral), the “Inhibition … % inhibition” value was 80.0 @ 3 mg/kg %. In addition, the EC50 in test [2] (72 h incubation) came to 18.9 nM. Besides, the Ki is 2.11 nM in test [3] (setting [5]) and 0.528 nM in test [4] (setting [5]).
In the same order, the values of `CCOc1cc(=O)n(C)cc1-c1cc(S(=O)(=O)C2CC2)ccc1Oc1ccc(F)cc1F` [Example 371, 5-[5-(cyclopropylsulfonyl)-2-(2,4-difluorophenoxy)phenyl]-4-ethoxy-1-methylpyridin-2(1H)-one] are 57.6 @ 3 mg/kg %, 40.9 nM, 8.73 nM and 2.29 nM.
In the same order, the values of `CCOc1cc(=O)n(C)cc1-c1cc(S(=O)(=O)C(C)C)ccc1Oc1ccc(F)cc1F` [Example 369, 5-[2-(2,4-difluorophenoxy)-5-(propan-2-ylsulfonyl)phenyl]-4-ethoxy-1-methylpyridin-2(1H)-one] are 38.0 @ 3 mg/kg %, 28.1 nM, 5.29 nM and 2.42 nM.
For `CCOc1cc(=O)n(C)cc1-c1cc(NS(=O)(=O)CC)ccc1Oc1ccc(OC(F)(F)F)cc1` [Example 387, N-{3-(4-ethoxy-1-methyl-6-oxo-1,6-dihydropyridin-3-yl)-4-[4-(trifluoromethoxy)phenoxy]phenyl}ethanesulfonamide], the “Inhibition … % inhibition” value in test [1] (3 mg/kg oral) was 54.3 @ 3 mg/kg %. In addition, in test [2] (72 hours with compound), the EC50 was determined as 61.8 nM. Also, the Ki was 69.1 nM in test [3] (setting [6]) and 7.87 nM in test [4] (setting [6]).
For the compound `Cn1cc(-c2cc(NS(C)(=O)=O)ccc2Oc2ccccc2Cl)ccc1=O` [Example 235, N-[4-(2-chlorophenoxy)-3-(1-methyl-6-oxo-1,6-dihydropyridin-3-yl)phenyl]methanesulfonamide], the “Inhibition … % inhibition” value in test [1] (30 mg/kg oral) is recorded as 58.7 @ 30 mg/kg %. Also, the EC50 in test [2] (72 h incubation) was 238 nM. For the same compound, the Ki in test [3] (setting [5]) is 47.6 nM; in test [4] (setting [5]), 17 nM.
`CCS(=O)(=O)Nc1ccc(Oc2ccc(F)cc2F)c(-c2ccc(=O)n(C)c2)c1` [Example 241, N-[4-(2,4-difluorophenoxy)-3-(1-methyl-6-oxo-1,6-dihydropyridin-3-yl)phenyl]ethanesulfonamide]: the “Inhibition … % inhibition” value in test [1] (3 mg/kg oral) is 73.9 @ 3 mg/kg %. Further, the EC50 in test [2] (72 h incubation) came to 181 nM. The Ki in test [3] (setting [5]) was 34.6 nM; in test [4] (setting [5]), 27.1 nM.
In the same order, the values of `CCOc1cc(=O)n(C)cc1-c1cc(NS(=O)(=O)CC)ccc1Oc1ccc(C#N)cc1` [Example 358, N-[4-(4-cyanophenoxy)-3-(4-ethoxy-1-methyl-6-oxo-1,6-dihydropyridin-3-yl)phenyl]ethanesulfonamide] are 60.5 @ 3 mg/kg %, 52.6 nM, 7.8 nM and 7.61 nM.
Regarding `CC(C)C(O)c1ccc(-c2cc(=O)n(C)nc2-c2ccccc2Oc2ccccc2)cc1` (stereo not drawn) [Example 73, 5-[4-(1-hydroxy-2-methylpropyl)phenyl]-2-methyl-6-(2-phenoxyphenyl)pyridazin-3(2H)-one], the EC50 in test [2] (72 h incubation) came to 1130 nM. Moreover, the Ki in test [3] (setting [5]) is 462 nM; in test [4] (setting [5]), 307 nM.
In the same order, the values of `CCS(=O)(=O)Nc1ccc(Oc2ccc(F)cc2F)c(-c2cn(C)c(=O)cc2-c2cnn(CCN3CCOCC3)c2)c1` [Example 345, N-[4-(2,4-difluorophenoxy)-3-(1-methyl-4-{1-[2-(morpholin-4-yl)ethyl]-1H-pyrazol-4-yl}-6-oxo-1,6-dihydropyridin-3-yl)phenyl]ethanesulfonamide] are 126 nM, 10.2 nM and 5.44 nM.
For the compound `CCOc1cc(=O)n(C)cc1-c1cc(NS(=O)(=O)CC)ccc1Oc1ccc(C#N)cc1F` [Example 408, N-[4-(4-cyano-2-fluorophenoxy)-3-(4-ethoxy-1-methyl-6-oxo-1,6-dihydropyridin-3-yl)phenyl]ethanesulfonamide], the EC50 in test [2] (72 hours with compound) is 115 nM. The Ki in test [3] (setting [6]) was 45.1 nM; in test [4] (setting [6]), 19.1 nM.
For `CC(=O)c1cc(=O)n(C)nc1-c1ccccc1Oc1ccccc1` [Example 221, 5-acetyl-2-methyl-6-(2-phenoxyphenyl)pyridazin-3(2H)-one], in test [2] (72 h incubation), the EC50 was 7200 nM. Besides, the Ki in test [3] (setting [5]) is 976 nM; in test [4] (setting [5]), 517 nM.
Regarding `Cn1nc(-c2cc(N)ccc2Oc2ccccc2)ccc1=O` [Example 10, 6-(5-amino-2-phenoxyphenyl)-2-methylpyridazin-3(2H)-one], the EC50 in test [2] (72 h incubation) was determined as 3700 nM. The Ki in test [3] (setting [5]) is 2440 nM; in test [4] (setting [5]), 1500 nM.
